According to patent publication US20040029153A1, “Method for estimating metabolic function of xenobiotic and induction thereof” (priority 2000, published 2004):
Read-outs that look alike come from different tables or passages of the source.

Key:
CYP1A = assay: Induction of ethoxyresorfin dealkylation activity in primary human hepatocytes; assay type: in vitro ADME; conditions: HH-110
Method: After the culture medium was completely removed from the culture plate, Lanford's medium (1 mL) containing 8 μmol/L of 7-ethoxyresorfin and 10 μmol/L of dicumarol was added to each well, and the plate was incubated for 30 minutes in the CO2 incubator to allow reaction. Whole volume of each reaction was recovered and stored at −80° C. until measurement. The cells were washed twice with Lanford's medium, and maintained in the CO2 incubator again or directly used as a sample for another test.
The stored reactions were thawed, and accurately 75 μL of each reaction was removed and mixed with 0.1 mol/L of acetate-sodium acetate buffer (pH 4.4, 25 μL) containing 15 Fishman units of β-glucuronidase [EC 3.2.1.31] and 120 Roy units of sulfatase [EC 3.1.6.1], followed by conjugation reaction for two hours at 37° C. Ethanol (200 μL) was added to the reaction and subjected to centrifugation. The supernatant (200 μL) was transferred to a 96-well microtiter plate. Microplate reader (Labsystems, Fluoroscan Ascent) was used to measure the fluorescence intensity at the wavelength of 590 nm when excited with excitation light at the wavelength of 544 nm. The resorfin production figured out from the result was used to measure the ethoxyresorfin dealkylation activity.
The cells maintained under the conditions considered optimal in Examples 8 and 9 were continued to be added with 1 μmol/L of 3-methylcholanthrene for three days, and the changes in ethoxyresorfin dealkylation activity was investigated. HH-110 cells were used.
Primary human hepatocytes (HH-110) were continued to be loaded with 1 μmol/L of 3-methylcholanthrene for three days between days 4th to 7th post seeding (indicated by a crossbar in the figure), and these cells had been maintained further for five days again in the conventional Lanford's medium. During this period, measurement of ethoxyresorfin dealkylation activity was conducted at 8 times to investigate the changes in the activity. Three samples per condition were measured independently, and the mean values are shown. The standard deviations are indicated by error bar. […]

[1] = test system: primary human hepatocytes; assay: Ethoxycoumarin dealkylation and coumarin conjugation activities in primary human hepatocytes; assay type: in vitro ADME; conditions: HH-110 and HH-118; benz[a]anthracene 5 μmol/L, 3-methylcholanthrene 2 μmol/L; one day and night
Method: Lanford's medium (1 mL) containing 75 μmol/L of 7-ethoxycoumarin was added to each well after the culture medium was removed, and the plate was incubated for two hours in the CO2 incubator to allow reaction. Whole volume of each reaction was recovered and stored at −80° C. until measurement. The cells were washed twice with Lanford's medium, and maintained in the CO2 incubator again or directly used as a sample for another test. The stored reactions were thawed, and 50 μl of the reaction was analyzed by liquid chromatography, ethoxycoumarin dealkylation activity and glucuronate and sulfate conjugation activities were comprehensively estimated based on the production of 7-hydroxycoumarin, 7-hydroxycoumarin glucuronide and 7-hydroxycoumarin sulfate. Herein, 7-ethoxycoumarin is converted to 7-hydroxycoumarin after dealkylation, and then conjugated by glucuronate and sulfate.
The cells maintained under the conditions considered optimal in Examples 8 and 9 were continued to be added with 5 μmol/L of benz[a]anthracene or 2 μmol/L of 3-methylcholanthrene one day and night, and then the changes in ethoxycoumarin dealkylation activity was investigated. HH-110 and HH-118 cells were used.
Three samples per each condition i.e., control (Lane 1), adding of 3-methylcholanthrene (Lane 2) and benz[a]anthracene (Lane 3) which were measured independently, and the mean values are shown. […]

CYP1A1/2 = assay: Western blotting of CYP1A protein in cryopreserved primary human hepatocytes; conditions: HH-110 and HH-118; 3-methylcholanthrene 2 μmol/L, benz[a]anthracene 5 μmol/L; one day and night; vs control
CYP3A mRNA = conditions: hepatocytes
CYP3A = assay: Induction of testosterone hydroxylation activity in primary human hepatocytes
[2] = test system: primary human hepatocytes; assay: Effect of culture medium components on rifampicin induction of testosterone hydroxylation activity; assay type: cell-based
CYP3A4 = test system: CYP3A4
Method: The cells in the suspension were seeded in a 12-well culture plate coated with collagen at the density of 6×10^5 cells/well, and the plate was incubated one day and night in the CO2 incubator. Subsequently, the culture medium containing 10% fetal bovine serum was removed, 1 ml of fresh serum-free Lanford's medium was added to each well, and the cells were maintained in the CO2 incubator. The inside of the CO2 incubator used in the present invention was maintained at 37° C. in an atmosphere of 5% […] saturated with vapor.
10 μl of the sample was electrophoresed on polyacrylamide gel, and blotted onto PVDF transfer membrane.

Cc1ccc2cc3c(ccc4ccccc43)c3c2c1CC3 [3-methylcholanthrene]
ethoxyresorfin dealkylation activity during continued addition (CYP1A; 1 μmol/L, added for three days): gradually decreased
time of maximum ethoxyresorfin dealkylation activity (CYP1A; 1 μmol/L, added for three days): one day after 3-methylcholanthrene was added
ethoxyresorfin dealkylation activity after addition was stopped (CYP1A; after three days of 1 μmol/L): returned to their original state prior to the addition of the compounds in a day
production of 7-hydroxycoumarin, 7-hydroxycoumarin glucronide and 7-hydroxycoumarin sulfate [1]: increases
CYP1A1/2 expression (western blotting) (CYP1A1/2): increased

c1ccc2cc3c(ccc4ccccc43)cc2c1 [benz[a]anthracene]
production of 7-hydroxycoumarin, 7-hydroxycoumarin glucronide and 7-hydroxycoumarin sulfate [1]: increases
CYP1A1/2 expression (western blotting) (CYP1A1/2): increased

Clc1ccccc1C(c1ccccc1)(c1ccccc1)n1ccnc1 [clotrimazole]
CYP3A mRNA level, concentration-dependence of induction (CYP3A mRNA): increase of the mRNA level was observed
testosterone hydroxylation activity, concentration-dependence of induction (CYP3A; HH-110, different concentrations): increase of the testosterone hydroxylation activity was not observed

C[C@]12CCC(=O)C=C1CC[C@@H]1[C@@H]2[C@@H](O)C[C@@]2(C)[C@H]1CC[C@]2(O)C(=O)CO [hydrocortisone]
effect of medium component on maintenance of testosterone hydroxylation activity ([2]; HH-110, hydrocortisone-free vs conventional Landford's medium): essential

CCC1(c2ccccc2)C(=O)NC(=O)NC1=O [phenobarbital]
CYP3A4 expression (western blotting) (CYP3A4): not marked
CYP 3A mRNA (CYP3A/β-actin) (CYP3A mRNA): Increases
day of maximum testosterone hydroxylation activity after addition (CYP3A; HH-110, rifampicin 10 μmol/L, phenobarbital 1 mmol/L, loaded for four days): 4 days
testosterone hydroxylation activity (CYP3A; five donors (HH-018, HH-022, HH-029, HH-110, HH-118), rifampicin 10 μmol/L, phenobarbital 1 mmol/L, four days): Increases

C[C@]12C=CC(=O)C=C1CC[C@@H]1[C@@H]2[C@@H](O)C[C@@]2(C)[C@H]1CC[C@]2(O)C(=O)CO [predonisolone]
induction of testosterone hydroxylation activity with glucocorticoid instead of hydrocortisone in medium ([2]; HH-110, 1 μmol/L in medium, rifampicin 10 μmol/L for three days): can be observed

cholera toxin
effect of medium component on induction of testosterone hydroxylation activity [2]: enhancing factors

B1: Prolactin: component of Landford's medium (protein, UniProt P01239 31-229, looked up)
Prolactin: TPVCPNGPGNCQVSLRDLFDRAVMVSHYIHDLSSEMFNEFDKRYAQGKGFITMALNSCHTSSLPTPEDKEQAQQTHHEVLMSLILGLLRSWNDPLYHLVTEVRGMKGAPDAILSRAIEIEEENKRLLEGMEMIFGQVIPGAKETEPYPVWSGLPSLQTKDEDARYSAFYNLLHCLRRDSSKIDTYLKLLNCRIIYNNNC
effect of medium component on induction of testosterone hydroxylation activity ([2]; HH-110, component-free vs conventional Landford's medium, induction by rifampicin): enhancing factors
